Read-outs that look alike come from different tables or passages of the source.
What was measured:
influenza A H1N1 virus = settings: 48 hr post-treatment, A549
EBV = settings: normalized mean of EBV replication readout
HCV replicon = type: cell-based; settings: normalized mean of HCV replicon readout
HIV1 strain NL4-3 = type: cell-based; settings: normalized mean of HIV1 replication readout
[1] = test system: F. novicida (strain U112); type: cell-based

Substance	Neuraminidase activity normalized to vehicle (influenza A H1N1 virus; 200 µM peptide)	Neuraminidase activity normalized to vehicle (influenza A H1N1 virus; 0,823 µM peptide)	Neuraminidase activity normalized to vehicle (influenza A H1N1 virus; 22,2 µM peptide)	Neuraminidase activity normalized to vehicle (influenza A H1N1 virus; 2,4691 µM peptide)	Neuraminidase activity normalized to vehicle (influenza A H1N1 virus; 7,4074 µM peptide)	Neuraminidase activity normalized to vehicle (influenza A H1N1 virus; 66,6667 µM peptide)	EBV Norm MEAN (EBV; peptide screen)	HCV Norm MEAN (HCV replicon; peptide screen)	HIV1 Norm MEAN (HIV1 strain NL4-3; peptide screen)	Francisella novicida Norm AUC [1]	EBV Norm MEAN (EBV)	HCV Norm MEAN (HCV replicon)	HIV1 Norm MEAN (HIV1 strain NL4-3)
HFEPPTLHELYDLDVTAP [CPEP115]	1,0337	1,141	1,1784	1,0495	1,1676	1,1762	0.5144	0.5064	1.21	1.086			
HGCPL [CPEP33]	0,999	0,7063	0,8914	0,8619	0,7735	1,0094				0.6368	1.339	0.1691	0.2429
HVKNG [CPEP123]	0,78	0,7776	0,8404	0,7299	0,7535	0,9273				0.9754	1.599	0.1965	1.079
IHTHARFLIT [CPEP139]	0,8832	1,1262	0,9135	1,0704	1,0144	0,8125				1.233	1.5606	0.5677	2.216
IKQEDIKP [CPEP109]	0,7052	0,9055	0,889	0,8881	0,975	0,8029				0.9859	0.5875	0.2159	0.5534
IQIGNHNAM [CPEP67]	0,0404	0,9632	0,5849	0,8279	0,768	0,4017				0.7313	1.399	0.7713	4.672
ISNLPYTIKYKIFEQQ [CPEP120]	1,0456	1,0562	1,193	0,9901	1,0754	1,0268	1.211	0.3919	3.21	0.5785			
IVISDSEEE [CPEP121]	1,0697	1,0507	1,0096	1,0097	0,9639	1,0552				1.126	1.138	0.7416	0.9208
KKTKSLP [CPEP75]	0,6614	0,8942	0,8062	0,8135	0,8547	0,7577				1.06	0.414	0.2042	0.7985
KLVTELAENS [CPEP129]	0,8014	1,1002	0,8882	1,0838	0,9983	0,7782				0.9413	1.255	0.8005	0.8117
LEDLL [CPEP131]	1,0859	1,0236	1,0471	1,0486	0,9867	1,1075				1.169	1.433	0.1994	2.616

Source: article PMC10835127, “Viruses traverse the human proteome through peptide interfaces that can be biomimetically leveraged for drug discovery” (Proceedings of the National Academy of Sciences of the …, 2024)
